Data as given in patent US20260256772A1, “BENZOTHIAZOLE COMPOUND AND USE THEREOF” (NANJING REJU THERAPEUTICS, INC., priority 2022, published 2026).

Tests used:
[1] = system: senescent cells; assay: Senescent cell killing, CellTiter-Glo cell viability; assay type: cell-based, human, mouse; conditions: activity of killing senescent cells; cell type not specified
Source text: In this test example, human non-small cell lung cancer cell line (A549 cells), human embryonic lung fibroblast cell line (IMR90 cells), human retinal pigment epithelial cells (RPE cells), mouse chondrocytes, and mouse skin fibroblasts were selected. The above cells were induced by etoposide ([…]) to obtain their senescent cells. The effect of the target compounds on the viability of normal and senescent cells above was examined, thus assessing the specific killing effect of the compounds on senescent cells above.
Briefly, senescent and normal cells above were selected and plated separately (96-well plates). […] 2A to 2E.

[2] = system: Alzheimer's disease; assay: Alzheimer's disease APP×PS1 transgenic mouse model; assay type: in vivo; conditions: intraperitoneal injection, 11 consecutive weeks, twice a week, FIG. 8
Experimental: In this test example, the efficacy of the compounds of the present disclosure was tested on Alzheimer's disease in an animal model of Alzheimer's disease. Briefly, a transgenic mouse model of APP×PS1 (purchased from Cyagen Biosciences) was selected, and the compound of the present disclosure was administered by intraperitoneal injection for 11 consecutive weeks, twice a week. Alterations in amyloid in the cerebral cortex of the mice were observed.

[3] = system: renal fibrosis; assay: Renal fibrosis animal model (ureter ligation); assay type: in vivo, C57BL/6J mice; conditions: FIG. 11; for serum creatinine (Cr) levels / urea nitrogen (BUN) levels: intraperitoneal (IP) injection from 2nd week of modelling; for pathology: intraperitoneal (IP) injection, kidney Masson staining
Experimental: In this test example, the efficacy of the compound of the present disclosure was tested on renal fibrosis in an animal model of renal fibrosis. Briefly, C57BL/6J mice, male, 7 to 8 weeks old, were used. The mice were anaesthetized, made to lie supine on a foam board, and disinfected with iodophor, and a longitudinal incision was made in the skin in the middle of the lower abdomen to locate the white line of the abdominal muscle, where the abdominal muscle, fascia and peritoneal layer were dissected. After exposing the surgical field, the kidneys were exposed by pushing the stomach and mesentery of the mice to the right side with a gauze soaked with saline. The model of renal fibrosis was constructed by locating the transparent ureter from the renal pelvis along the renal artery, separating the left ureter, ligating the upper ⅓ of the left ureter, suturing the incision layer by layer, and finally disinfecting with iodophor. Dosing via intraperitoneal injection started from the 2nd week of modelling. At the end of the experiment, the mouse serum was collected, and kidney tissues were taken for Masson staining index assay.

[4] = system: platelets; assay: Platelet toxicity test in mice (platelet count); assay type: in vivo; conditions: mice, 0.5 mg/kg single intraperitoneal injection, blood at 6 hours, FIG. 1
Experimental: In this test example, C57 mice were chosen to detect the effect of the target compounds on platelets.
7 to 8 weeks old […] mice were randomly divided into vehicle group and compound group. The test compound (0.5 mg/kg) or blank vehicle was administrated via single intraperitoneal injection. Blood was collected from the retroorbital venous plexus of the mice at 6 hours, and placed in a blood routine tube containing anticoagulant EDTA-K2. After shaking gently, the blood physiological indicators were measured using a hematology analyzer, with the platelet count as the target parameter for this platelet toxicity test.

[5] = system: oxygen-induced retinopathy (OIR); assay: Mouse model of oxygen-induced retinopathy (OIR); assay type: in vivo; conditions: intravitreal (IVT), 1 μL of 200 μM at P12, read at P17, FIG. 3
Experimental: The efficacy of the prodrugs RX001-RX006 as well as RX301 were investigated in a mouse model of oxygen-induced retinopathy (OIR) which to some extent indicates an in vivo model of retinopathy of prematurity (ROP), diabetic retinopathy, and wet age-related macular degeneration.
From postnatal Day 7 (P7) to Day 12 (P12), C57Bl/6 mouse pups and their CD 1 foster mothers were exposed to hyperoxia (75% 02). At P12, the animals were injected intravitreally with 1 μL of the test composition formulated in 1% DMSO, 10% Tween 80, and 20% PEG-400 (200 μM of the compound) and returned to room air until day 17 (P17). On P17, the eyeballs were enucleated, and the retinas were dissected for vascular staining. To determine the area of avascularity or angiogenesis, the retinas were flattened and stained with isolectin B4 (IB4).

Compound	IC50 [1] [µM]	Aβ42 pathogenic protein indicators [2]	serum creatinine (Cr) levels [3]	urea nitrogen (BUN) levels [3]	pathology [3]	platelet toxicity (platelet count) [4]	angiogenesis [5]	avascular zone [5]
CCN1CCN(C(=O)c2nc(N3CCc4cccc(C(=O)Nc5nc6ccccc6s5)c4C3)ccc2-c2cnn(CC34CC5CC(CC(C5)C3)C4)c2C)CC1 [RX001]	0.2 to 1	statistically significant improvements	statistically significant improvements	statistically significant improvements	statistically significant improvements	–	–	–
Cc1c(-c2ccc(N3CCc4cccc(C(=O)Nc5nc6ccccc6s5)c4C3)nc2C(=O)N2CCC(CCOP(=O)(O)O)CC2)cnn1CC12CC3CC(CC(C3)C1)C2 [RX301]	< 0.2	statistically significant improvements	statistically significant improvements	statistically significant improvements	statistically significant improvements	significantly improved	statistically significant improvements	statistically significant improvements
